SMILES strings stand for the structures.

The target of the first experiment is Bromodomain-containing protein 4 (Homo sapiens, UniProt O60885). In words: Displacement of biotinylated acetylated peptide from recombinant human partial length BRD4 long isoform bromodomain 1/2 (N44 to E460 residues) expressed in Escherichia coli BL21 measured after 1 hr by Bromoscan method.
Conditions: not given
A word on the Kd: it is the free concentration of one partner at which half of the binding sites on the other are occupied at equilibrium, for simple one-to-one binding. Take `Cc1noc(C)c1-c1ccc2nc(N3CCN(CCN(C)C)CC3)nc(N3CCCC3c3ccccc3)c2c1` (stereo unspecified): the Kd worked out at 250 nM.

On to `Cc1noc(C)c1-c1ccc2nc(N3CCN(CC(=O)N(C)C)CC3)nc(NCc3cccc(Cl)c3)c2c1`, for which the Kd was 73 nM.

Consider `Cc1noc(C)c1-c1ccc2nc(N3CCN(CCN(C)C)CC3)nc(NCc3cccc(F)c3)c2c1`, for which the Kd was found to be 170 nM.

With `Cc1oncc1-c1ccc2nc(N3CCN(CCN(C)C)CC3)nc(NCc3cccc(Cl)c3)c2c1`, the Kd worked out at 1100 nM.

For the compound `Cc1noc(C)c1-c1ccc2nc(N3CCN(C(=O)CO)CC3)nc(NCc3cccc(Cl)c3)c2c1`, the Kd turned out to be 71 nM.

As for `Cc1noc(C)c1-c1ccc2nc(N3CCN(CCN(C)C)CC3)nc(NC(C)c3cccc(Cl)c3)c2c1` (stereo unspecified), the Kd was 270 nM.

On to `Cc1n[nH]c(C)c1-c1ccc2nc(N3CCN(CCN(C)C)CC3)nc(NCc3cccc(Cl)c3)c2c1`, for which the Kd turned out to be 1500 nM.

For the compound `Cc1noc(C)c1-c1ccc2[nH]c(=O)cc(NCc3cccc(Cl)c3)c2c1`, the Kd was found to be 55 nM.

On to `Cc1noc(C)c1-c1ccc2nc(N3CCN(CCN(C)C)CC3)nc(NCCc3ccc(Cl)cc3)c2c1`, for which the Kd is 3000 nM.

For the compound `Cc1noc(C)c1-c1ccc2nc(C(=O)N3CCN(CCN(C)C)CC3)nc(NCc3cccc(Cl)c3)c2c1`, the Kd worked out at 570 nM.

Consider `Cc1noc(C)c1-c1ccc2nc(-c3cnn(CCO)c3)nc(NCc3cccc(Cl)c3)c2c1`, for which the Kd is 95 nM.

On to `Cc1nocc1-c1ccc2nc(N3CCN(CCN(C)C)CC3)nc(NCc3cccc(Cl)c3)c2c1`, for which the Kd is 360 nM.

For the compound `Cc1noc(C)c1-c1ccc2nc(-c3cnn(CC(N)=O)c3)nc(NCc3cccc(Cl)c3)c2c1`, the Kd was found to be 130 nM.

Take `Cc1ccc(NC(=O)c2nc(NCc3cccc(Cl)c3)c3cc(-c4c(C)noc4C)ccc3n2)cn1`: the Kd came to 620 nM.

`Cc1noc(C)c1-c1ccc2nc(-c3cnn(CCC#N)c3)nc(NCc3cccc(Cl)c3)c2c1`: the Kd came to 120 nM.

As for `Cc1noc(C)c1-c1ccc2nc(N3CCN(CCCN(C)C)CC3)nc(NCc3cccc(Cl)c3)c2c1`, the dissociation constant Kd was 97 nM.

`Cc1noc(C)c1-c1ccc2c(NCc3cccc(Cl)c3)nc(N3CCN(CCN(C)C)CC3)nc2c1`: the Kd worked out at 610 nM.

For the compound `Cc1noc(C)c1-c1ccc2nc(N3CCN(CCN(C)C)CC3)nc(N3CCC3c3ccccc3)c2c1` (stereo unspecified), the Kd stood at 480 nM.

Turning to `Cc1noc(C)c1-c1ccc2nc(N3CCN(CCN(C)C)CC3)nc(NCc3ccccc3Cl)c2c1`, the Kd was determined as 85 nM.

`Cc1cc(-c2ccc3nc(N4CCN(CCN(C)C)CC4)nc(NCc4cccc(Cl)c4)c3c2)cnc1O`: the Kd was 310 nM.

In a further experiment the test system is MV4-11. In words: Cytotoxicity against human MV411 cells after 72 hrs by CellTiter-Glo assay. The class given is functional, cell-based. The conditions noted are these: MV4-11, 72 h. On the technique in general: Cellular ATP, detected with luciferase, serves as a proxy for viable cell number.
The IC50 is the midpoint of a concentration-inhibition curve. High values mean weaker potency in that assay, low ones greater potency in that assay. `CNc1nc(NCc2cccc(Cl)c2)c2cc(-c3c(C)noc3C)ccc2n1`: the IC50 came to 3590 nM.

With `Cc1noc(C)c1-c1ccc2nc(Cl)nc(NCc3cccc(Cl)c3)c2c1`, it took 11300 nM to reach half-maximal inhibition (IC50).

For `CNC(=O)Cn1cc(-c2nc(NCc3cccc(Cl)c3)c3cc(-c4c(C)noc4C)ccc3n2)cn1`, the IC50 turned out to be 1010 nM.

`Cc1noc(C)c1-c1ccc2nc(-n3cc(CCO)cn3)nc(NCc3cccc(Cl)c3)c2c1` displayed a 50% inhibitory concentration (IC50) of 3080 nM.

For `Cc1noc(C)c1-c1ccc2nc(N3CCN(CCN(C)C)CC3)nc(N3CCOCC3c3ccccc3)c2c1` (stereo unspecified), half-maximal inhibition (IC50) was put at 1830 nM.

On to `Cc1noc(C)c1-c1ccc2nc(N3CCN(CCN(C)C)CC3)nc(N3CCCC3c3ccccc3)c2c1` (stereo unspecified), for which the IC50 stood at 2540 nM.

In turn, `Cc1noc(C)c1-c1ccc2nc(N3CCN(CC(=O)N(C)C)CC3)nc(NCc3cccc(Cl)c3)c2c1` came in with an IC50 of 1730 nM.

`Cc1noc(C)c1-c1ccc2nc(N3CCN(CCN(C)C)CC3)nc(NCc3cccc(F)c3)c2c1`: the IC50 was 1230 nM.

Turning to `Cc1oncc1-c1ccc2nc(N3CCN(CCN(C)C)CC3)nc(NCc3cccc(Cl)c3)c2c1`, the IC50 is 8030 nM.

In turn, `Cc1noc(C)c1-c1ccc2nc(N3CCN(C(=O)CO)CC3)nc(NCc3cccc(Cl)c3)c2c1` displayed an IC50 of 1330 nM.

For the compound `Cc1noc(C)c1-c1ccc2nc(N3CCN(CCN(C)C)CC3)nc(NC(C)c3cccc(Cl)c3)c2c1` (stereo unspecified), the IC50 stood at 4350 nM.

Regarding `Cc1n[nH]c(C)c1-c1ccc2nc(N3CCN(CCN(C)C)CC3)nc(NCc3cccc(Cl)c3)c2c1`, the IC50 was determined as 2850 nM.

Compound `Cc1noc(C)c1-c1ccc2[nH]c(=O)cc(NCc3cccc(Cl)c3)c2c1` returned an IC50 of 1800 nM.

`Cc1noc(C)c1-c1ccc2nc(N3CCN(CCN(C)C)CC3)nc(NCCc3ccc(Cl)cc3)c2c1`: the IC50 amounted to 6650 nM.

Consider `Cc1noc(C)c1-c1ccc2nc(-c3ccc(CO)nc3)nc(NCc3cccc(Cl)c3)c2c1`, for which the IC50 was found to be 2640 nM.

Consider `Cc1noc(C)c1-c1ccc2nc(C(=O)N3CCN(CCN(C)C)CC3)nc(NCc3cccc(Cl)c3)c2c1`, for which the IC50 came out at 4710 nM.

In the case of `Cc1noc(C)c1-c1ccc2nc(-c3cnn(CCO)c3)nc(NCc3cccc(Cl)c3)c2c1`, the IC50 came out at 1670 nM.

Take `Cc1nocc1-c1ccc2nc(N3CCN(CCN(C)C)CC3)nc(NCc3cccc(Cl)c3)c2c1`: the IC50 was 2970 nM.

As for `Cc1noc(C)c1-c1ccc2nc(-c3cnn(CC(N)=O)c3)nc(NCc3cccc(Cl)c3)c2c1`, the IC50 amounted to 660 nM.

`Cc1ccc(NC(=O)c2nc(NCc3cccc(Cl)c3)c3cc(-c4c(C)noc4C)ccc3n2)cn1` returned an IC50 of 4520 nM.

For `Cc1noc(C)c1-c1ccc2nc(-c3cnn(CCC#N)c3)nc(NCc3cccc(Cl)c3)c2c1`, the IC50 amounted to 950 nM.

The compound `Cc1noc(C)c1-c1ccc2nc(N3CCN(CCCN(C)C)CC3)nc(NCc3cccc(Cl)c3)c2c1` gave an IC50 of 2360 nM.

For `Cc1noc(C)c1-c1ccc2c(NCc3cccc(Cl)c3)nc(N3CCN(CCN(C)C)CC3)nc2c1`, it took 1870 nM to reach half-maximal inhibition (IC50).

In the case of `Cc1noc(C)c1-c1ccc2nc(N3CCN(CCN(C)C)CC3)nc(N3CCC3c3ccccc3)c2c1` (stereo unspecified), the IC50 turned out to be 4880 nM.

In the case of `Cc1noc(C)c1-c1ccc2nc(N3CCN(CCN(C)C)CC3)nc(NCc3ccccc3Cl)c2c1`, the midpoint of inhibition, the IC50, lay at 1250 nM.

`Cc1cc(-c2ccc3nc(N4CCN(CCN(C)C)CC4)nc(NCc4cccc(Cl)c4)c3c2)cnc1O` had an IC50 of 1130 nM.

For the origin of these results see ChEMBL document CHEMBL4261601, “Discovery and lead identification of quinazoline-based BRD4 inhibitors” (Bioorg Med Chem Lett, 2018).
